Data as given in patent publication US20230143612A1 (Arbutus Biopharma Corporation, priority 2020, published 2023).

Molecular target: PD-L1 His protein / PD-1 Fc protein (Homo sapiens, UniProt Q9NZQ7)
Test: HTRF Assay (PD-1/PD-L1 interaction)
Type: binding
Details: PD-L1 His 6 nM, PD-1 Fc 6 nM
Procedure, shortened: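 Compounds tested from 20 μM down to 0.001 μM (3-fold) against 6 nM PD-L1 His and 6 nM PD-1 Fc, 15 min room temperature incubation. Detection after 1 h at room temperature with Tb cryptate anti-6HIS and XL665 anti-human IgG reagents (mixture at 0.35 nM and 6.7 nM), HTRF signal.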

Sequence of PD-L1 His protein / PD-1 Fc protein (Q9NZQ7 19-238 limits assumed): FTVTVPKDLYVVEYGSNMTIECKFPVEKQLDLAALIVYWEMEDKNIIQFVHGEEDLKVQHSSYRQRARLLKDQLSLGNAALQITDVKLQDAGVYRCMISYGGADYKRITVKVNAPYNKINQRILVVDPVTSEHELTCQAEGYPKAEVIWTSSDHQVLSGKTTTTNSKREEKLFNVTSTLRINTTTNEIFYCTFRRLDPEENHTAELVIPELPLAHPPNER

| SMILES | IC50 [nM] |
| --- | --- |
| COc1cc(-c2cccc(-c3cccc(-c4ccc(CNC[C@@H]5CCC(=O)N5)c(OC)n4)c3Cl)c2Cl)cc2c1CN(CCO)CC2 [Example 455, (S)-5-((((6-(2,2′-Dichloro-3′-(2-(2-hydroxyethyl)-8-methoxy-1,2,3,4-tetrahydroisoquinolin-6-yl)-[1,1′-biphenyl]-3-yl)-2-methoxypyridin-3-yl)methyl)amino)methyl)pyrrolidin-2-one] | 12 |
| COc1nc(-c2cccc(-c3cccc(-c4ccc5c(n4)CCC[C@H]5NC[C@@H]4CCC(=O)N4)c3Cl)c2Cl)ccc1CNC[C@@H]1CCC(=O)N1 [Example 456, (S)-5-((((6-(2,2′-Dichloro-3′-((R)-5-((((S)-5-oxopyrrolidin-2-yl)methyl)amino)-5,6,7,8-tetrahydroquinolin-2-yl)-[1,1′-biphenyl]-3-yl)-2-methoxypyridin-3-yl)methyl)amino)methyl)pyrrolidin-2-one] | 0.2 |
| COc1nc(-c2cccc(-c3cccc(-c4cc5c(=O)n(C)c(CNC6CCN(C(C)=O)CC6)nn5c4)c3Cl)c2Cl)ccc1CNC[C@@H]1CCC(=O)N1 [Example 457, 2-[[(1-Acetyl-4-piperidyl)amino]methyl]-6-[2-chloro-3-[2-chloro-3-[6-methoxy-5-[[[(2S)-5-oxopyrrolidin-2-yl]methylamino]methyl]-2-pyridyl]phenyl]phenyl]-3-methyl-pyrrolo[2,1-f][1,2,4]triazin-4-one] | 190 |
| COc1nc(-c2cccc(-c3cccc(-c4cc5c(=O)n(C)c(CNCCN6CCCC6=O)nn5c4)c3Cl)c2Cl)ccc1CNC[C@@H]1CCC(=O)N1 [Example 458, 6-[2-Chloro-3-[2-chloro-3-[6-methoxy-5-[[[(2S)-5-oxopyrrolidin-2-yl]methylamino]methyl]-2-pyridyl]phenyl]phenyl]-3-methyl-2-[[2-(2-oxopyrrolidin-1-yl)ethylamino]methyl]pyrrolo[2,1-f][1,2,4]triazin-4-one] | 240 |
| COc1nc(-c2cccc(-c3cccc(-c4cnc5oc(CNC[C@@H]6CCC(=O)N6)cc5c4)c3Cl)c2Cl)ccc1CNC[C@@H]1CCC(=O)N1 [Example 459, (S)-5-((((6-(2,2′-Dichloro-3′-(2-(((((S)-5-oxopyrrolidin-2-yl)methyl)amino)methyl)furo[2,3-b]pyridin-5-yl)-[1,1′-biphenyl]-3-yl)-2-methoxypyridin-3-yl)methyl)amino)methyl)pyrrolidin-2-one] | 200 |
| COc1nc(-c2cccc(-c3cccc(-c4cc5c(=O)n(C)c(CN6CC7(C6)CN(C(C)=O)C7)nn5c4)c3Cl)c2Cl)ccc1CNC[C@@H]1CCC(=O)N1 [Example 460, 2-[(2-Acetyl-2,6-diazaspiro[3.3]heptan-6-yl)methyl]-6-[2-chloro-3-[2-chloro-3-[6-methoxy-5-[[[(2S)-5-oxopyrrolidin-2-yl]methylamino]methyl]-2-pyridyl]phenyl]phenyl]-3-methyl-pyrrolo[2,1-f][1,2,4]triazin-4-one] | 9.9 |
| COc1nc(-c2cccc(-c3cccc(-c4cc5c(=O)n(C)c(CN6CC(C(C)(C)O)C6)nn5c4)c3Cl)c2Cl)ccc1CNC[C@@H]1CCC(=O)N1 [Example 461, 6-[2-Chloro-3-[2-chloro-3-[6-methoxy-5-[[[(2S)-5-oxopyrrolidin-2-yl]methylamino]methyl]-2-pyridyl]phenyl]phenyl]-2-[[3-(1-hydroxy-1-methyl-ethyl)azetidin-1-yl]methyl]-3-methyl-pyrrolo[2,1-f][1,2,4]triazin-4-one] | 13 |
| COc1nc(-c2cccc(-c3cccc(-c4cc5c(=O)n(C)c(CNCC(C)(C)F)nn5c4)c3Cl)c2Cl)ccc1CNC[C@@H]1CCC(=O)N1 [Example 462, (S)-6-(2,2′-Dichloro-3′-(6-methoxy-5-((((5-oxopyrrolidin-2-yl)methyl)amino)methyl)pyridin-2-yl)-[1,1′-biphenyl]-3-yl)-2-(((2-fluoro-2-methylpropyl)amino)methyl)-3-methylpyrrolo[2,1-f][1,2,4]triazin-4(3H)-one] | 58 |
| COc1nc(-c2cccc(-c3cccc(-c4cc5c(=O)n(C)c(CNCC6(F)CC6)nn5c4)c3Cl)c2Cl)ccc1CNC[C@@H]1CCC(=O)N1 [Example 463, (S)-6-(2,2′-Dichloro-3′-(6-methoxy-5-((((5-oxopyrrolidin-2-yl)methyl)amino)methyl)pyridin-2-yl)-[1,1′-biphenyl]-3-yl)-2-((((1-fluorocyclopropyl)methyl)amino)methyl)-3-methylpyrrolo[2,1-f][1,2,4]triazin-4(3H)-one] | 36 |
| COc1nc(-c2cccc(-c3cccc(-c4cc5c(=O)n(C)c(CN[C@H]6C[C@](C)(O)C6)nn5c4)c3Cl)c2Cl)cc(Cl)c1CNC[C@@H]1CCC(=O)N1 [Example 464, 6-(2,2′-dichloro-3′-(4-chloro-6-methoxy-5-(((((S)-5-oxopyrrolidin-2-yl)methyl)amino)methyl)pyridin-2-yl)-[1,1′-biphenyl]-3-yl)-2-((((1r,3r)-3-hydroxy-3-methylcyclobutyl)amino)methyl)-3-methylpyrrolo[2,1-f][1,2,4]triazin-4(3H)-one] | 7.5 |
| COc1nc(-c2cccc(-c3cccc(-c4cc5c(=O)n(C)c(CNCC(C)(C)C(F)(F)F)nn5c4)c3Cl)c2Cl)ccc1CNC[C@@H]1CCC(=O)N1 [Example 466, (S)-6-(2,2′-Dichloro-3′-(6-methoxy-5-((((5-oxopyrrolidin-2-yl)methyl)amino)methyl)pyridin-2-yl)-[1,1′-biphenyl]-3-yl)-3-methyl-2-(((3,3,3-trifluoro-2,2-dimethylpropyl)amino)methyl) pyrrolo[2,1-f][1,2,4]triazin-4(3H)-one] | 63 |
| COc1nc(-c2cccc(-c3cccc(-c4cc5c(cn4)C(=O)N(CCNC[C@@H]4CCC(=O)N4)C5)c3Cl)c2Cl)ccc1CNC[C@@H]1CCC(=O)N1 [Example 467, 6-(2,2′-Dichloro-3′-(6-methoxy-5-(((((S)-5-oxopyrrolidin-2-yl)methyl)amino)methyl)pyridin-2-yl)-[1,1′-biphenyl]-3-yl)-2-(2-((((S)-5-oxopyrrolidin-2-yl)methyl)amino)ethyl)-1H-pyrrolo[3,4-c]pyridin-3(2H)-one] | 0.1 |
| COc1nc(-c2cccc(-c3cccc(-c4cc5c(=O)n(C)c(CN6CC7(CC(O)C7)C6)nn5c4)c3Cl)c2Cl)ccc1CNC[C@@H]1CCC(=O)N1 [Example 468, 6-[2-Chloro-3-[2-chloro-3-[6-methoxy-5-[[[(2S)-5-oxopyrrolidin-2-yl]methylamino]methyl]-2-pyridyl]phenyl]phenyl]-2-[(6-hydroxy-2-azaspiro[3.3]heptan-2-yl)methyl]-3-methyl-pyrrolo[2,1-f][1,2,4]triazin-4-one] | 7 |
| COc1nc(-c2cccc(-c3cccc(-c4cc5c(=O)n(C)c(CN6CC(C)(O)C6)nn5c4)c3Cl)c2Cl)ccc1CNC[C@@H]1CCC(=O)N1 [Example 469, 6-[2-Chloro-3-[2-chloro-3-[6-methoxy-5-[[[(2S)-5-oxopyrrolidin-2-yl]methylamino]methyl]-2-pyridyl]phenyl]phenyl]-2-[(3-hydroxy-3-methyl-azetidin-1-yl)methyl]-3-methyl-pyrrolo[2,1-f][1,2,4]triazin-4-one] | 5.9 |
| COc1nc(-c2cccc(-c3cccc(-c4cc5c(=O)n(C)c(CN6CC(C)(C#N)C6)nn5c4)c3Cl)c2Cl)ccc1CNC[C@@H]1CCC(=O)N1 [Example 470, 1-[[6-[2-chloro-3-[2-chloro-3-[6-methoxy-5-[[[(2S)-5-oxopyrrolidin-2-yl]methylamino]methyl]-2-pyridyl]phenyl]phenyl]-3-methyl-4-oxo-pyrrolo[2,1-f][1,2,4]triazin-2-yl]methyl]-3-methyl-azetidine-3-carbonitrile] | 37 |
| COc1nc(-c2cccc(-c3cccc(-c4nc5c(c(OC)n4)CN(C[C@@H]4CCC(=O)N4)CC5)c3Cl)c2Cl)ccc1CNC[C@@H]1CCC(=O)N1 [Example 471, (S)-5-((((6-(2,2′-Dichloro-3′-(4-methoxy-6-(((S)-5-oxopyrrolidin-2-yl)methyl)-5,6,7,8-tetrahydropyrido[4,3-d]pyrimidin-2-yl)-[1,1′-biphenyl]-3-yl)-2-methoxypyridin-3-yl)methyl)amino)methyl)pyrrolidin-2-one] | 0.1 |
| COc1nc(-c2cccc(-c3cccc(-c4cc5c(=O)n(C)c(CNC[C@@H]6CCO6)nn5c4)c3Cl)c2Cl)ccc1CNC[C@@H]1CCC(=O)N1 [Example 472, 6-[2-Chloro-3-[2-chloro-3-[6-methoxy-5-[[[(2S)-5-oxopyrrolidin-2-yl]methylamino]methyl]-2-pyridyl]phenyl]phenyl]-3-methyl-2-[[[(2S)-oxetan-2-yl]methylamino]methyl]pyrrolo[2,1-f][1,2,4]triazin-4-one] | 400 |
| COc1nc(-c2cccc(-c3cccc(-c4cc5c(=O)n(C)c(CNC67CC(O)(C6)C7)nn5c4)c3Cl)c2Cl)ccc1CNC[C@@H]1CCC(=O)N1 [Example 473, (S)-6-(2,2′-Dichloro-3′-(6-methoxy-5-((((5-oxopyrrolidin-2-yl)methyl)amino)methyl)pyridin-2-yl)-[1,1′-biphenyl]-3-yl)-2-(((3-hydroxybicyclo[1.1.1]pentan-1-yl)amino)methyl)-3-methylpyrrolo[2,1-f][1,2,4]triazin-4(3H)-one] | 5.3 |
| COc1nc(-c2cccc(-c3cccc(-c4cc5c(=O)n(C)c(CNC[C@@H]6CCCO6)nn5c4)c3Cl)c2Cl)ccc1CNC[C@@H]1CCC(=O)N1 [Example 474, 6-[2-Chloro-3-[2-chloro-3-[6-methoxy-5-[[[(2S)-5-oxopyrrolidin-2-yl]methylamino]methyl]-2-pyridyl]phenyl]phenyl]-3-methyl-2-[[[(2S)-tetrahydrofuran-2-yl]methylamino]methyl]pyrrolo[2,1-f][1,2,4]triazin-4-one] | 21 |
| COc1nc(-c2cccc(-c3cccc(-c4cc5c(=O)n(C)c(CNC[C@H](C)OC)nn5c4)c3Cl)c2Cl)ccc1CNC[C@@H]1CCC(=O)N1 [Example 475, 6-[2-Chloro-3-[2-chloro-3-[6-methoxy-5-[[[(2S)-5-oxopyrrolidin-2-yl]methylamino]methyl]-2-pyridyl]phenyl]phenyl]-2-[[[(2S)-2-methoxypropyl]amino]methyl]-3-methyl-pyrrolo[2,1-f][1,2,4]triazin-4-one] | 530 |
